From ChEMBL document CHEMBL5257116, “Design, synthesis, and biological evaluation of acyl sulfonamide derivatives with spiro cycles as NaV1.7 inhibitors for antinociception” (Bioorg Med Chem, 2023)
Calls of active or inactive are those of the source. The rule behind the calls is not given here.

Experiments:
[1] = biological target: T1, Sodium channel protein type 9 subunit alpha (Homo sapiens, UniProt Q15858); assay: Inhibition of human Nav1.7 expressed in HEK293 cells at 10 uM measured for 48 hrs by whole-cell patch clamp electrophysiology assay; type: cell-based
Target sequence in this assay (Q15858 whole entry, looked up): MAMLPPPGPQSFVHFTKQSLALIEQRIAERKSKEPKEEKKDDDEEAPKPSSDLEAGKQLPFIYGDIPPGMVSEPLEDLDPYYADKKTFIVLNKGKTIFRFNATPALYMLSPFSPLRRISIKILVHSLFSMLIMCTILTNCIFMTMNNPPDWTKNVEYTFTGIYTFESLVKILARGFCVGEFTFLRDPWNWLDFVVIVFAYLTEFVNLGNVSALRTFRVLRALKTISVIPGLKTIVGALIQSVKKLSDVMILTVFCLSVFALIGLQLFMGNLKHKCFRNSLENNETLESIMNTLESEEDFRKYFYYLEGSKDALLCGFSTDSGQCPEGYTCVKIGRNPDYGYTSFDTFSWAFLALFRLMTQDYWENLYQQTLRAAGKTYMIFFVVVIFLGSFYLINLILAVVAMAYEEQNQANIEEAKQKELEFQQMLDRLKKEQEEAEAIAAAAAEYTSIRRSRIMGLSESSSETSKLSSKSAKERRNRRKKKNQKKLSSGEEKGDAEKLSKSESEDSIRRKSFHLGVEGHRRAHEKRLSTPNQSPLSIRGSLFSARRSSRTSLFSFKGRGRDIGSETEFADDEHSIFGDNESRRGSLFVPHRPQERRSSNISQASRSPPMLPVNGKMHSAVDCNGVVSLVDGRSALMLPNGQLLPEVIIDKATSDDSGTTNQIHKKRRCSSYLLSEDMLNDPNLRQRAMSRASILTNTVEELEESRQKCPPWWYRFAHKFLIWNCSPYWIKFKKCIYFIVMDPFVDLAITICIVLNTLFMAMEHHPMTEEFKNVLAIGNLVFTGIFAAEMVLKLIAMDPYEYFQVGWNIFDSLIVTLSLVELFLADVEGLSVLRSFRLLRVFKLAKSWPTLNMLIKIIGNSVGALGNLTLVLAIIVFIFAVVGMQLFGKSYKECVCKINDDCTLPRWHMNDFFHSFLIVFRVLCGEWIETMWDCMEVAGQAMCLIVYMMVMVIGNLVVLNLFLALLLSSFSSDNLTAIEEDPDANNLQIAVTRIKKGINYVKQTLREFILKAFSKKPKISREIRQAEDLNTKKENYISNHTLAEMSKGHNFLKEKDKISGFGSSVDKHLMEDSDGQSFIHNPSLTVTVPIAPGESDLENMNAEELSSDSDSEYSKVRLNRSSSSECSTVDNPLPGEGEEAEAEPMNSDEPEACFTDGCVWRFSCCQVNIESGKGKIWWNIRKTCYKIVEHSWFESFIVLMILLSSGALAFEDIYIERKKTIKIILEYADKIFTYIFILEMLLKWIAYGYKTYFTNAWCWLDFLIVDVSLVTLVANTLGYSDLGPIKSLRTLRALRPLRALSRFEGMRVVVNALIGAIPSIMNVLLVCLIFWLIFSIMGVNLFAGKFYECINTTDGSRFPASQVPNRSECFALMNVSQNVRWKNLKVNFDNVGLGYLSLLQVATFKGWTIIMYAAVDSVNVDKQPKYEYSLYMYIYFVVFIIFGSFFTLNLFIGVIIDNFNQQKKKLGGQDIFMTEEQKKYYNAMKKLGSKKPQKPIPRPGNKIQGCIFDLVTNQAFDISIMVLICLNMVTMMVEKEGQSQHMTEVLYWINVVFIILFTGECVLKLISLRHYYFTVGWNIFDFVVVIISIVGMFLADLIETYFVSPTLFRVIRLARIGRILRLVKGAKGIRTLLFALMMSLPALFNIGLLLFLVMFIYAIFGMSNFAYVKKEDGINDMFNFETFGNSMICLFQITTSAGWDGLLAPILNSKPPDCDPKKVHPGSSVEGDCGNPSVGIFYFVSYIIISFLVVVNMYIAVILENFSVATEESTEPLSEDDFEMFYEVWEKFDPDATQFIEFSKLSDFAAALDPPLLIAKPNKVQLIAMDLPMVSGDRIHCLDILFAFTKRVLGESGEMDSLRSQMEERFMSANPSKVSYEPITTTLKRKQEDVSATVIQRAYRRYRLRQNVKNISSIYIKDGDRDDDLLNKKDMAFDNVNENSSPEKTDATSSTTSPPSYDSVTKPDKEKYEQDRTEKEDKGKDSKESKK

[2] = biological target: T1, Sodium channel protein type 9 subunit alpha; assay: Inhibition of human Nav1.7 expressed in HEK293 cells at 1 uM measured for 48 hrs by whole-cell patch clamp electrophysiology assay; type: cell-based
Target sequence in this assay (Q15858 whole entry, looked up): as above

[3] = biological target: T1, Sodium channel protein type 9 subunit alpha; assay: Inhibition of Nav1.7 (unknown origin) by whole-cell patch clamp assay
Target sequence in this assay (Q15858 whole entry): as the sequence (Q15858 whole entry, looked up) above

Mus musculus [4] = assay: Antinociceptive activity in Kunming mouse at 20 mg/kg,ip measured for 1 to 4 hrs after administration by hot plate test; type: functional, organism-based; conditions: time 1-4 hrs
[5] = biological target: Sodium channel protein type 5 subunit alpha (Homo sapiens, UniProt Q14524); assay: Inhibition of Nav1.5 (unknown origin) by whole-cell patch clamp assay
Chain of Sodium channel protein type 5 subunit alpha (Q14524 whole entry): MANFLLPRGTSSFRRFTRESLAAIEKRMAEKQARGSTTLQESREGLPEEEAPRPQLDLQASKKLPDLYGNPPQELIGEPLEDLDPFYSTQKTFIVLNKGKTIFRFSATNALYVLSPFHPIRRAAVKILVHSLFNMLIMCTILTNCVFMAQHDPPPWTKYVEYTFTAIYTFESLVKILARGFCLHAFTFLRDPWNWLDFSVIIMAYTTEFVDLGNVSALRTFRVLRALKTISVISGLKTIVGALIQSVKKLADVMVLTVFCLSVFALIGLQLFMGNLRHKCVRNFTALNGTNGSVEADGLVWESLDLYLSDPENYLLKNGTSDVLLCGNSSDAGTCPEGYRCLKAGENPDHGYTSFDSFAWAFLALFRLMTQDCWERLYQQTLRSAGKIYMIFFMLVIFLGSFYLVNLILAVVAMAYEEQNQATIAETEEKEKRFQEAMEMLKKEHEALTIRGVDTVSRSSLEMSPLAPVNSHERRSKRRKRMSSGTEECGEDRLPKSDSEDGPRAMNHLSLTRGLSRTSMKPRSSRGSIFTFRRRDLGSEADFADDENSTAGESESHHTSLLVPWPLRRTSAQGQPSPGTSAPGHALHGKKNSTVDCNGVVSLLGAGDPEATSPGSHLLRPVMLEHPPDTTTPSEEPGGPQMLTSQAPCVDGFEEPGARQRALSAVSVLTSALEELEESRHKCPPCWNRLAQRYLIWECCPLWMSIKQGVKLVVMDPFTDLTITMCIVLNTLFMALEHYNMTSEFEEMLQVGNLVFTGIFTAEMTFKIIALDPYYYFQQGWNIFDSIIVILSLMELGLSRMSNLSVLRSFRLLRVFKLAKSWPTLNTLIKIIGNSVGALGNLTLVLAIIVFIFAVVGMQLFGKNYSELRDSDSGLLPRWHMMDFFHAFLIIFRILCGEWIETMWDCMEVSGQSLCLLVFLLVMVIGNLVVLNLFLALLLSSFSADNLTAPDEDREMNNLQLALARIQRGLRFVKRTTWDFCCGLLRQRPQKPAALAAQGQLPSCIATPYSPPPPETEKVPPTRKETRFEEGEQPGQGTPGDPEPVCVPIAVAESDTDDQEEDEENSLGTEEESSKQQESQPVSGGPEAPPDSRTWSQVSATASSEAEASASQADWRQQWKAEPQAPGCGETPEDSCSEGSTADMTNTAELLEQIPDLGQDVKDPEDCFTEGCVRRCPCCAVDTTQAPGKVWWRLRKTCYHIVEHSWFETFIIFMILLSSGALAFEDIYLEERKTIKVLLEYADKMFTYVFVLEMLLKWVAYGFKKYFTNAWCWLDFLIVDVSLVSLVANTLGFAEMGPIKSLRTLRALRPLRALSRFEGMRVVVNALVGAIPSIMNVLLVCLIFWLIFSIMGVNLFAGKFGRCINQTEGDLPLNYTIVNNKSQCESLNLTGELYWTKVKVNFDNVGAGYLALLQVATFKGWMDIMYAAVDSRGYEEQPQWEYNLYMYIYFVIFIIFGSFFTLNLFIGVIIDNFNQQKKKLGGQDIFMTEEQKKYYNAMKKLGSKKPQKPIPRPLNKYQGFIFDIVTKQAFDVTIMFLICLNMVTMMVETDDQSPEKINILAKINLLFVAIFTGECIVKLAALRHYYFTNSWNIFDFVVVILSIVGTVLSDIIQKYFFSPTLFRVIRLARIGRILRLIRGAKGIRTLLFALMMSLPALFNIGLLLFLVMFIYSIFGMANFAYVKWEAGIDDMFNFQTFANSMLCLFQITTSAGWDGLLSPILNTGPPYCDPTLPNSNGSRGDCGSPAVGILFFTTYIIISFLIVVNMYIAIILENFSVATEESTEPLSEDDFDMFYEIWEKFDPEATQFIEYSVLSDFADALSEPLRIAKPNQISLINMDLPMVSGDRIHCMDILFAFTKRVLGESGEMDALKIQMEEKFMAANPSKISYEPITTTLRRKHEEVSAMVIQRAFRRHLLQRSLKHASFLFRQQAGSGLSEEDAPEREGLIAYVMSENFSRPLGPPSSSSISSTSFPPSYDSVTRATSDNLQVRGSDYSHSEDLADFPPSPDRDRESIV

[6] = biological target: Sodium channel protein type 4 subunit alpha (Homo sapiens, UniProt P35499); assay: Inhibition of Nav1.4 (unknown origin) by whole-cell patch clamp assay
Homo sapiens = species: Homo sapiens; assay: Selectivity ratio of IC50 for inhibition of Nav1.7 (unknown origin) to IC50 for inhibition of Nav1.4 (unknown origin)
Mus musculus [7] = assay: Antinociceptive activity in Kunming mouse at 10 mg/kg,ip measured for 1 to 4 hrs after administration by hot plate test; type: functional, organism-based; conditions: time 1-4 hrs
Mus musculus [8] = assay: Antinociceptive activity in Kunming mouse at 40 mg/kg,ip measured for 1 to 4 hrs after administration by hot plate test; type: functional, organism-based; conditions: time 1-4 hrs
Mus musculus [9] = assay: Antinociceptive activity in Kunming mouse assessed as inhibition of acetic acid-induced abdominal constrictions at 10 to 40 mg/kg,ip pre-administrated for 2 hrs followed by acetic acid induction and measured for 15 mins by writhing test; type: functional, organism-based; conditions: dose 10-40 mg/kg, time 135.0 min
[10] = Sedative activity in Kunming mouse assessed as effect on spontaneous locomotor activity at 20 mg/kg,ip administrated for 2 hrs and measured for 30 mins by open field test; type: toxicity, organism-based; conditions: in vivo, 2.5 h

Row | SMILES | inhibition [1] | inhibition [2] | other results
1 | C[C@H](NCc1ccc(OCc2ccccc2F)cc1)C(N)=O [RALFINAMIDE] | 30.9% | 12.5% | IC50 [3]: 35.2 µM; Activity (Mus musculus [4]): Active
2 | O=C(NS(=O)(=O)C1CC1)c1cc(F)c(OCCC2CCC3(CCN(Cc4ccccc4)CC3)C2)cc1F (stereo not given) | 99.7% | – | IC50 [3]: 1.15 µM
3 | O=C(NS(=O)(=O)C1CC1)c1cc(Cl)c(OCCC2CCC3(CCN(CC4CCCCC4)CC3)C2)cc1F (stereo not given) | 65.5% | 20.1% | –
4 | O=C(NS(=O)(=O)C1CC1)c1cc(Cl)c(OCCC2CCC3(CCN(Cc4ccc(Cl)cc4)CC3)C2)cc1F (stereo not given) | 87.2% | 23.8% | –
5 | O=C(NS(=O)(=O)C1CC1)c1ccc(OCCC2CCC3(CCN(Cc4ccccc4)CC3)C2)cc1 (stereo not given) | 92% | – | –
6 | O=C(NS(=O)(=O)C1CC1)c1cc(Cl)c(OCCC2CCC3(CCN(Cc4ccco4)CC3)C2)cc1F (stereo not given) | 97.6% | 60% | IC50 [3]: 0.61 µM
7 | CCN1CCC2(CCC(CCOc3ccc(C(=O)NS(=O)(=O)C4CC4)cc3)C2)CC1 (stereo not given) | 24.2% | – | –
8 | O=C(NS(=O)(=O)C1CC1)c1cc(C2CC2)c(OCCC2CCC3(CCN(Cc4ccccc4)CC3)C2)cc1F (stereo not given) | 96.5% | – | –
9 | Cc1cc(C(=O)NS(=O)(=O)C2CC2)c(F)cc1OCCC1CCC2(CCN(Cc3ccccc3)CC2)C1 (stereo not given) | 101% | – | IC50 [3]: 1.04 µM
10 | CCc1ccc(CN2CCC3(CCC(CCOc4cc(F)c(C(=O)NS(=O)(=O)C5CC5)cc4Cl)C3)CC2)cc1 (stereo not given) | 93.9% | 29.4% | –
11 | O=C(NS(=O)(=O)C1CC1)c1cc(Cl)c(OCCC2CCC3(CCN(Cc4cccc(C(F)(F)F)c4)CC3)C2)cc1F (stereo not given) | 55.9% | 16.1% | –
12 | O=C(NS(=O)(=O)C1CC1)c1ccc(OC2CC3(CCNCC3)C2)cc1 | 15.4% | – | –
13 | O=C(NS(=O)(=O)C1CC1)c1cc(Cl)c(OCCC2CCC3(CCN(Cc4ccsc4)CC3)C2)cc1F (stereo not given) | 95.9% | 61.4% | IC50 [3]: 0.84 µM; IC50 [5]: 54.7 µM
14 | O=C(NS(=O)(=O)C1CC1)c1ccc(OCC2CCC3(CCNCC3)C2)cc1 (stereo not given) | 0.2% | – | –
15 | O=C(NS(=O)(=O)C1CC1)c1ccc(OC2CCC3(CCN(Cc4ccccc4)CC3)C2)cc1 (stereo not given) | 45.7% | – | –
16 | O=C(NS(=O)(=O)C1CC1)c1ccc(OC2CCC3(CC2)CCN(Cc2ccccc2)CC3)cc1 | 13.7% | – | –
17 | CCN1CCC2(CCC(Oc3ccc(C(=O)NS(=O)(=O)C4CC4)cc3)C2)CC1 (stereo not given) | 16.8% | – | –
18 | O=C(NS(=O)(=O)C1CC1)c1ccc(OCC2CCC3(CCN(Cc4ccccc4)CC3)C2)cc1 (stereo not given) | 57.4% | – | –
19 | O=C(NS(=O)(=O)C1CC1)c1cc(Cl)c(OCCC2CCC3(CCN(Cc4cc(Cl)cc(Cl)c4)CC3)C2)cc1F (stereo not given) | 77.2% | – | –

Now from value to compound, other results behind:

Row | inhibition [1] | inhibition [2] | SMILES | other results
20 | 24.3% | – | CCN1CCC2(CCC(CCOc3cc(F)c(C(=O)NS(=O)(=O)C4CC4)cc3Cl)C2)CC1 (stereo not given) | –
21 | 71.4% | – | O=C(NS(=O)(=O)C1CC1)c1ccc(OC2CCC3(CCNCC3)C2)cc1 (stereo not given) | –
22 | 75.1% | 27.5% | O=C(NS(=O)(=O)C1CC1)c1cc(Cl)c(OCCC2CCC3(CCN(CCc4ccccc4)CC3)C2)cc1F (stereo not given) | –
23 | 1.4% | – | CCN1CCC2(CCC(COc3ccc(C(=O)NS(=O)(=O)C4CC4)cc3)C2)CC1 (stereo not given) | –
24 | 14.3% | – | CCN1CCC2(CC1)CC(Oc1ccc(C(=O)NS(=O)(=O)C3CC3)cc1)C2 | –
25 | 11.2% | – | O=C(NS(=O)(=O)C1CC1)c1ccc(OC2CCC3(CCNCC3)CC2)cc1 | –
26 | 8.4% | – | O=C(NS(=O)(=O)C1CC1)c1ccc(OCCC2CCC3(CCNCC3)C2)cc1 (stereo not given) | –
27 | 21.5% | – | O=C(NS(=O)(=O)C1CC1)c1ccc(OC2CC3(CCN(Cc4ccccc4)CC3)C2)cc1 | –
28 | 72.8% | 21.2% | O=C(NS(=O)(=O)C1CC1)c1cc(Cl)c(OCCC2CCC3(CCN(CCCc4ccccc4)CC3)C2)cc1F (stereo not given) | –
29 | 97.1% | 33.5% | O=C(NS(=O)(=O)C1CC1)c1cc(Cl)c(OCCC2CCC3(CCN(Cc4cccc5ccccc45)CC3)C2)cc1F (stereo not given) | –
30 | 22.9% | – | CCN1CCC2(CCC(Oc3ccc(C(=O)NS(=O)(=O)C4CC4)cc3)CC2)CC1 | –
31 | 89.6% | – | O=C(NS(=O)(=O)C1CC1)c1cc(Cl)c(OCCC2(F)CCN(Cc3cc(Cl)cc(Cl)c3)CC2)cc1F | IC50 [3]: 1.01 µM; IC50 [5]: 58.9 µM; IC50 [6]: 2.7 µM; Ratio IC50 (Homo sapiens): 3
32 | 102% | 70.8% | O=C(NS(=O)(=O)C1CC1)c1cc(Cl)c(OCCC2CCC3(CCN(Cc4ccccc4)CC3)C2)cc1F (stereo not given) | IC50 [3]: 0.46 µM; IC50 [5]: 46.2 µM; IC50 [6]: 4.88 µM; Activity (Mus musculus [4]): Active; Activity (Mus musculus [7]): inactive; Activity (Mus musculus [8]): inactive; Activity (Mus musculus [9]): Dose-Dependent Effect; Activity [10]: Non-Toxic; Ratio IC50 (Homo sapiens): 10
33 | 89.3% | 31.1% | COc1ccc(CN2CCC3(CCC(CCOc4cc(F)c(C(=O)NS(=O)(=O)C5CC5)cc4Cl)C3)CC2)cc1 (stereo not given) | –
